Experimental data from patent US10139394B2, “Method for controlling cancer metastasis or cancer cell migration by modulating the cellular level of lysyl tRNA synthetase” (Medicinal Bioconvergence Research Center, priority 2008, dated 2018).

Key:
[1] = tested on: MMP-2; assay: MMP-2 zymography; format: cell-based; settings: A549 cells; laminin 10 μg/ml 24 hr; FIG. 19
Experimental: In FIG. 18, A549 cells were transfected with the indicated plasmids, incubated in the absence and presence of laminin and their effect on cell migration was determined by measuring the migrated cells in transwell chamber as described. The numbers of the cells passed through the membrane were counted and shown in each panel. The experiments were performed three times. In FIG. 19, the cells treated as above were used to determine MMP-2 activity and level by zymography and Western blotting, respectively. In FIG. 20, Breast carcinoma 4T-1 cells were transfected with the indicated siRNA and subcutaneously injected to the back of Balb/C mice. After 21 days, mouse lungs were isolated and tumor nodules over 1 mm in diameter were counted. In FIG. 21, two different 4T-1 cells stably expressing exogenously introduced KRS (KRS-1 and -2) were also inoculated as above and the tumor nodules were counted 30 days after injection. 4T-1 cells with empty vector were used as control. In FIG. 22, expression levels of KRS and 67LR in lung (upper) and breast (lower) cancer tissues were compared by immunohistochemical staining with their respective antibodies. 39 lung and 40 breast cancer tissues were subjected to immunohistochemical staining with anti-KRS and anti-67LR antibodies and their expression levels were compared with those in normal tissues (9 samples for each tissue). […]

[2] = tested on: membrane translocation of KRS; assay: Laminin-dependent membrane translocation of KRS and 67LR, cell fractionation and Western blotting; format: cell-based; settings: A549 cells; laminin 10 ug/ml, time course; FIG. 7
Experimental: (§1) In FIG. 7, A549 cells were treated with laminin (10 ug/ml) and the level of 67LR, 37LRP and KRS was determined by Western blotting at the indicated times. Hsp90 and Cadherin were used as markers for cytoplasm and membrane, respectively. In FIG. 8, A549 cells untreated or treated with laminin for 1 h were subjected to immunofluorescence staining with anti-67LR (MLuC5, Santacruz, sc-59732) (red) and -KRS antibodies (green). In FIG. 9, A549 cells were treated with U73122 (U), staurosporin (ST) and LY294002 (LY) that inhibit PLC-gamma, PKC and PI3K, respectively, for 3 hr, then with laminin for 1 hr and checked how these kinase inhibitors would affect the membrane and cytoplasmic level of 67LR and KRS. In FIG. 10, A549 cells were transfected with Myc-KRS and incubated for 24 h. The cells were treated with the indicated chemicals and then with laminin as above. Myc-KRS was immunoprecipitated, and immunoblotted with anti-p-Thr, -Ser, and -Tyr antibodies. In FIG. 11, A549 cells were transfected with Myc-KRS and cultivated for 24 hr. The transfectants were pre-treated with LY294002 for 3 hr and then treated with laminin for 1 h. Myc-KRS was immunoprecipitated and co-precipitation of 67LR was determined by Western blotting. IgG was used as a control for immunoprecipitation. In FIG. 12, A549 cells were cultivated in the absence and presence of laminin and LY294002 as indicated. EPRS (glutamyl-prolyl-tRNA synthetase) was immunoprecipitated with its specific antibody (AbCam), and co-immunoprecipitation of KRS was determined by Western blotting (upper). The immune-depleted supernatant (ID) were subjected to Western blottingting with anti-KRS and -EPRS antibodies.
The cells were lysed with 20 mM Tris-HCl (pH 7.4) buffer containing 150 mM NaCl, 0.5% TritonX-100, 0.1% SDS, and protease inhibitor. The protein extracts were incubated with normal IgG and protein G agarose for 2 hr and then centrifuged to remove nonspecific IgG binding proteins. […]

[3] = tested on: phosphorylation of KRS; assay: Laminin-induced phosphorylation of Myc-KRS, immunoprecipitation and immunoblot with anti-p-Thr, -Ser, -Tyr antibodies; format: cell-based, human; settings: Myc-KRS transfected A549 cells; laminin treatment; FIG. 10
Experimental: as §1, with “IgG was used as a control for immunoprecipitation. In FIG. 12, A549 cells were cultivated in the absence and presence of laminin and LY294002 as indicated.” left out, “The immune-depleted supernatant (ID) were subjected to Western blottingting with anti-KRS and -EPRS antibodies.” left out

Substance: laminin: laminin (Engelbreth-Holm-Swarm murine sarcoma) from Sigma
- MMP-2 activity [1]: enhanced
- membrane level of KRS and 67LR [2]: gradually increased
- phosphorylated KRS at threonine and serine [3]: increased
